Results published in US10820591B2, “Substituted sulfonyl amides for controlling animal pests” (Bayer Aktiengesellschaft, priority 2016, dated 2020).
Read-outs that look alike come from different tables or passages of the source.

Assays:
Meloidogyne incognita [1] = experiment: Meloidogyne incognita test, comparative examples (soil drench, lettuce); format: in vivo; conditions: 504 h, MELGIN, 21dat
Method: Meloidogyne incognita Test [table] To produce a suitable active compound preparation, 1 part by weight of active compound is mixed with the specified amounts of solvent and emulsifier, and the concentrate is diluted with water to the desired concentration, it being necessary to include the volume of soil which is drenched in the calculation. It should be ensured that a concentration of 20 ppm of emulsifier in the soil is not exceeded. To produce further test concentrations, water is used for dilution. Pots filled with soil (loamy sand) are watered with the active compound solution. An egg/larvae suspension of the southern root-knot nematode (Meloidogyne incognita) is added, lettuce seeds are scattered over the surface of the soil, and they are covered over with quartz sand. The lettuce seeds germinate and the plants develop. The galls develop on the roots. After 21 days, the nematicidal efficacy in % is determined by the formation of galls. 100% means that no galls have been found; 0% means that the number of galls on the treated plants corresponds to the untreated control.

[2] = log P by HPLC on reversed-phase column (C18), EEC Directive 79/831 Annex V.A8; format: physicochemical
Method: The log P values were determined according to EEC Directive 79/831 Annex V.A8 by HPLC (high-performance liquid chromatography) on a reversed-phase column (C18). Temperature 43° C. The calibration is effected with unbranched alkan-2-ones (having 3 to 16 carbon atoms), for which the log P values are known. Here, the terms acidic and neutral are defined analogously to the definitions below for the determination of M^+. The determination of the M^+ by LC-MS in the acidic range was carried out at pH 2.7 using the mobile phases 0.1% aqueous formic acid and acetonitrile (contains 0.1% formic acid); linear gradient from 10% acetonitrile to 95% acetonitrile, instrument: Agilent 1100 LC system, Agilent MSD system, HTS PAL. The determination of the M^+ by LC-MS in the neutral range was carried out at pH 7.8 using the mobile phases 0.001 molar aqueous ammonium bicarbonate solution and acetonitrile; linear gradient from 10% acetonitrile to 95% acetonitrile.

Meloidogyne incognita [3] = experiment: Meloidogyne incognita test (sand, lettuce, gall formation); format: in vivo; conditions: Meloidogyne incognita, 336 h, 20 ppm, after 14 days; read-out: nematicidal efficacy (formation of galls)
Outline: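 Vessels held sand, diluted compound solution, M. incognita egg/larvae suspension and lettuce seeds, and the plants grew for 14 days. Efficacy in % came from root gall formation: 100% means no galls, 0% means galls equal to the untreated control.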

Phaedon cochleariae = Phaedon cochleariae spray test; format: in vivo; conditions: 500 g/ha, Chinese cabbage leaf discs, after 7 days
Method: Phaedon cochleariae—Spray Test
To produce a suitable active compound preparation, 1 part by weight of active compound is dissolved with the specified parts by weight of solvent and made up to the desired concentration with water containing an emulsifier concentration of 1000 ppm. To produce further test concentrations, the formulation is diluted with emulsifier-containing water.
After 7 days, the efficacy in % is determined. 100% means that all the beetle larvae have been killed; 0% means that no beetle larvae have been killed.

Nilaparvata lugens = Nilaparvata lugens test; format: in vivo; conditions: 500 g/ha, spray, rice plants, after 4 days
Method: Nilaparvata lugens Test [table] To produce a suitable active compound preparation, 1 part by weight of active compound is dissolved with the specified parts by weight of solvent and made up to the desired concentration with water containing an emulsifier concentration of 1000 ppm. To produce further test concentrations, the formulation is diluted with emulsifier-containing water. Rice plants (Oryza sativa) are sprayed with the active compound preparation of the desired concentration and then infected with larvae of the brown planthopper (Nilaparvata lugens). After 4 days, the efficacy in % is determined. 100% means that all of the planthoppers have been killed; 0% means that none of the planthoppers have been killed.

Myzus persicae [4] = experiment: Myzus persicae oral test; format: in vivo; conditions: 120 h, 20 ppm, after 5 days, read-out: efficacy
Method: Myzus persicae—Oral Test [table] To produce a suitable active compound preparation, 1 part by weight of active compound is dissolved with the stated parts by weight of solvent and made up to the desired concentration with water. 50 μl of the active compound preparation are transferred into microtitre plates and made up to a final volume of 200 μl with 150 μl of IPL41 insect medium (33%+15% sugar). Subsequently, the plates are sealed with parafilm, which a mixed population of green peach aphids (Myzus persicae) within a second microtitre plate is able to puncture and imbibe the solution through it. After 5 days, the efficacy in % is determined. 100% means that all the aphids have been killed; 0% means that no aphids have been killed.

Boophilus microplus = Boophilus microplus injection test; format: in vivo; conditions: 20 μg/animal, after 7 days
Method: Boophilus microplus—Injection Test Solvent: dimethyl sulfoxide To produce a suitable active compound preparation, 10 mg of active compound are mixed with 0.5 ml of solvent and the concentrate is diluted to the desired concentration with solvent. 1 μl of the active compound solution is injected into the abdomen of 5 engorged adult female cattle ticks (Boophilus microplus). The animals are transferred into dishes and kept in a climate-controlled room. Efficacy is assessed after 7 days by laying of fertile eggs. Eggs which are not visibly fertile are stored in a climate-controlled cabinet until the larvae hatch after about 42 days. An efficacy of 100% means that none of the ticks has laid any fertile eggs; 0% means that all the eggs are fertile.

Myzus persicae [5] = experiment: Myzus persicae spray test (Chinese cabbage leaf discs); format: in vivo; conditions: foliar, 144 h, 500 g/ha, after 6 days, read-out: efficacy
Method: Myzus persicae—Spray Test [table] To produce a suitable active compound preparation, 1 part by weight of active compound is dissolved with the specified parts by weight of solvent and made up to the desired concentration with water containing an emulsifier concentration of 1000 ppm. To produce further test concentrations, the formulation is diluted with emulsifier-containing water. Discs of Chinese cabbage leaves (Brassica pekinensis) infested by all stages of the green peach aphid (Myzus persicae) are sprayed with an active compound preparation of the desired concentration. After 6 days, the efficacy in % is determined. 100% means that all the aphids have been killed; 0% means that no aphids have been killed.

[6] = reversed-phase C18 HPLC column, pH 2.7, HCOOH (formic acid mobile phase), 43° C., read-out: log P (HCOOH)
[7] = reversed-phase C18 HPLC column, neutral range, pH 7.8, aqueous ammonium bicarbonate/acetonitrile, 43° C., read-out: log P (neutral)
[8] = reversed-phase C18 HPLC column, acidic range, pH 2.7, 0.1% aqueous formic acid/acetonitrile, 43° C., read-out: log P (acidic)

COc1ccc(Cl)c(S(=O)(=O)NC(=O)c2cc3cc(Cl)cc(Cl)n3n2)c1
nematode control efficacy (%) at 1 ppm (Meloidogyne incognita [1]): 0%

COc1ccc(Cl)c(S(=O)(=O)NC(=O)c2cc3c(Cl)cc(C(F)(F)F)cn3n2)c1
nematode control efficacy (%) at 8 ppm (Meloidogyne incognita [1]): 30%

COc1ccc(Cl)c(S(=O)(=O)NC(=O)c2cn3cc(C(F)(F)F)cc(Cl)c3n2)c1
nematode control efficacy (%) at 0.5 ppm (Meloidogyne incognita [1]): 55%

O=C(O)c1cn(Cc2c(F)cccc2F)cn1 [1-(2,6-difluorobenzyl)-1H-imidazole-4-carboxylic acid]
chromatographic logP ([2]; pH 2.7): 0.42

Cc1nc(C(=O)O)cn1-c1ccccc1Cl [1-(2-chlorophenyl)-2-methyl-1H-imidazole-4-carboxylic acid]
chromatographic logP [2, 6]: 0.67 | chromatographic logP [2, 7]: -0.01

Cc1nc(C(=O)NS(=O)(=O)c2ccccc2Cl)cn1-c1ccccc1Cl [1-(2-chlorophenyl)-N-[(2-chlorophenyl)sulfonyl]-2-methyl-1H-imidazole-4-carboxamide]
chromatographic logP [2, 7]: 0.85

O=C(O)c1nc(Br)n(CCC(F)(F)F)c1Br [2,5-dibromo-1-(3,3,3-trifluoropropyl)-1H-imidazole-4-carboxylic acid]
chromatographic logP ([2]; pH 2.7): 1.49

O=C(NS(=O)(=O)c1ccccc1Cl)c1nc(Br)n(CCC(F)(F)F)c1Br [2,5-dibromo-N-[(2-chlorophenyl)sulfonyl]-1-(3,3,3-trifluoropropyl)-1H-imidazole-4-carboxamide]
chromatographic logP [2, 6]: 2.99

CCCn1cnc(C(=O)O)c1Cl [5-chloro-1-propyl-1H-imidazole-4-carboxylic acid]
chromatographic logP ([2]; pH 2.7): 0.6

CCCn1cnc(C(=O)NS(=O)(=O)c2ccc(OC)cc2)c1Cl [5-chloro-N-[(4-methoxyphenyl)sulfonyl]-1-propyl-1H-imidazole-4-carboxamide]
chromatographic logP [2, 7]: 0.56

COc1ccc(S(=O)(=O)NC(=O)c2ncn(CCC(F)(F)F)c2Cl)cc1C [I-037]
pest or weed control at 20 ppm (Meloidogyne incognita [3]): 100% | efficacy (Phaedon cochleariae): 83%

COc1ccc(S(=O)(=O)NC(=O)c2ncn(C(C)CC(F)(F)F)c2Cl)cc1 (stereo not shown) [I-070]
efficacy (Nilaparvata lugens): 100% | pest or weed control at 20 ppm (Meloidogyne incognita [3]): 100%

O=C(NS(=O)(=O)c1ccccc1Cl)c1nc(Br)n(CCC(F)(F)F)c1Br [I-107]
efficacy (Nilaparvata lugens): 100% | pest or weed control at 20 ppm (Meloidogyne incognita [3]): 100%

COc1ccc(Cl)c(S(=O)(=O)NC(=O)c2nc(Cl)n(-c3cc(Cl)cc(Cl)c3)c2Cl)c1 [I-113]
pest or weed control at 20 ppm (Meloidogyne incognita [3]): 100% | nematode control efficacy (%) at 0.5 ppm (Meloidogyne incognita [1]): 100%

COc1ccc(Cl)c(S(=O)(=O)NC(=O)c2cc(-c3cc(Cl)cc(Cl)c3)n(C)n2)c1 [I-137]
pest or weed control at 20 ppm (Meloidogyne incognita [3]): 100% | nematode control efficacy (%) at 1 ppm (Meloidogyne incognita [1]): 85%

COc1ccc(Cl)c(S(=O)(=O)NC(=O)c2cc(-c3cc(Cl)cc(C(F)(F)F)c3)n(C)n2)c1 [I-141]
pest or weed control at 20 ppm (Meloidogyne incognita [3]): 90% | nematode control efficacy (%) at 8 ppm (Meloidogyne incognita [1]): 99%

Cc1nc(C(=O)NS(=O)(=O)c2ccccc2)cn1-c1cccc(Cl)c1Cl [I-268]
pest or weed control at 20 ppm (Myzus persicae [4]): 90% | efficacy (laying of fertile eggs) (Boophilus microplus): 80% | pest or weed control at 20 ppm (Meloidogyne incognita [3]): 100% | pest or weed control at 500 g/ha (Myzus persicae [5]): 90%

Cc1cc(C)cc(-n2cnc(C(=O)NS(=O)(=O)c3ccccc3)c2)c1 [I-284]
pest or weed control at 20 ppm (Myzus persicae [4]): 100% | efficacy (laying of fertile eggs) (Boophilus microplus): 100% | pest or weed control at 20 ppm (Meloidogyne incognita [3]): 70%

O=C(NS(=O)(=O)c1cccc(Cl)c1)c1cn(-c2cc(Cl)cc(C(F)(F)F)c2)cn1 [I-300]
pest or weed control at 20 ppm (Meloidogyne incognita [3]): 70% | efficacy (Phaedon cochleariae): 100%

CCc1ccc(C)c(S(=O)(=O)NC(=O)c2nc(Cl)n(CCC(F)(F)F)c2Cl)c1 [I-456]
efficacy (Nilaparvata lugens): 100% | pest or weed control at 20 ppm (Meloidogyne incognita [3]): 100%

COc1ccc(Cl)c(S(=O)(=O)NC(=O)c2nc(Cl)n(C3CC3C(F)(F)F)c2Cl)c1 (stereo not shown) [I-470]
pest or weed control at 20 ppm (Meloidogyne incognita [3]): 100% | nematode control efficacy (%) at 0.5 ppm (Meloidogyne incognita [1]): 100%

Cn1nc(C(=O)NS(=O)(=O)c2cc(Cl)ccc2Cl)cc1-c1cccc(C(F)(F)F)c1 [N-[(2,5-dichlorophenyl)sulfonyl]-1-methyl-5-[3-(trifluoromethyl)phenyl]-1H-pyrazole-3-carboxamide]
chromatographic logP [2, 8]: 3.84

COc1ccc(Cl)c(S(=O)(=O)NC(=O)c2cn(Cc3c(F)cccc3F)cn2)c1 [N-[(2-chloro-5-methoxyphenyl)sulfonyl]-1-(2,6-difluorobenzyl)-1H-imidazole-4-carboxamide]
chromatographic logP [2, 8]: 2.18

COc1ccc(Cl)c(S(=O)(=O)NC(=O)c2nc(C)n(-c3cc(Cl)cc(Cl)c3)c2F)c1 [N-[(2-chloro-5-methoxyphenyl)sulfonyl]-1-(3,5-dichlorophenyl)-5-fluoro-2-methyl-1H-imidazole-4-carboxamide]
chromatographic logP [2, 8]: 3.71

CCOC(=O)c1cn(-c2ccccc2Cl)c(C)n1 [ethyl 1-(2-chlorophenyl)-2-methyl-1H-imidazole-4-carboxylate]
chromatographic logP [2, 7]: 2.06

CCCn1cnc(C(=O)OCC)c1N [ethyl 5-amino-1-propyl-1H-imidazole-4-carboxylate]
chromatographic logP [2, 7]: 0.9

CCCn1cnc(C(=O)OCC)c1Cl [ethyl 5-chloro-1-propyl-1H-imidazole-4-carboxylate]
chromatographic logP [2, 7]: 1.7

COC(=O)c1cn(Cc2c(F)cccc2F)cn1 [methyl 1-(2,6-difluorobenzyl)-1H-imidazole-4-carboxylate]
chromatographic logP [2, 8]: 1.45 | chromatographic logP [2, 7]: 1.55

COC(=O)c1cn(CCC(F)(F)F)cn1 [methyl 1-(3,3,3-trifluoropropyl)-1H-imidazole-4-carboxylate]
chromatographic logP [2, 6]: 0.87

COC(=O)c1nc(Br)n(CCC(F)(F)F)c1Br [methyl 2,5-dibromo-1-(3,3,3-trifluoropropyl)-1H-imidazole-4-carboxylate]
chromatographic logP [2, 6]: 2.13
